Measurements as given in patent publication US20080167444A1, “Abc Transporter Inhibitor” (priority 2004, published 2008).
“And” between values parts separate entries of the source, which are not always exact repeats. Equal values may be shown once.

What was measured:
PDR5 protein [1] = biological target: T1, PDR5 protein (Saccharomyces cerevisiae, UniProt P33302); assay: Growth inhibition of yeast with overexpressed PDR5 in the presence of cycloheximide or cerulenin (absorbance at 660 nm); format: cell-based; details: for inhibition of growth of the yeast with overexpressed PDR5: test drug at 5 μg/mL, cycloheximide or cerulenin present, static culture 30° C. 24 hours; for IC50: IC50 (concentration for 50% growth-inhibition), IC50 of cycloheximide or cerulenin, without or with addition of 5 μg/mL enniatin mixture or FK-506
T1 construct: expressed in transfected cells; host or cells: Saccharomyces cerevisiae W303 (MAT a Δsyr/erg3::HIS3 Δpdr5::LEU2 Δsnq2::HIS3)
Protocol: (§1) Yeast with overexpressed PDR5 by transformation of the host yeast (Saccharomyces cerevisiae W303 (MAT a Δsyr/erg3::HIS3 Δpdr5::LEU2 Δsnq2::HIS3)) with the PDR5 expression vector and the host yeast were inoculated separately in 4 mL each of the minimum medium followed by shaking culture at 30° C. for 12 hours. To a 96-well microtiter plate to which cycloheximide or cerulenin of various concentrations had been added, was added purified enniatin B, B1, D, or enniatin mixture of various concentrations, followed by inoculation of the above-mentioned yeast. The volume per well was adjusted to 200 μL by addition of the minimum medium. After static culture at 30° C. for 24 hours, the extent of growth of yeast was determined for evaluation of the growth-inhibiting activity of the test drug against the yeast with overexpressed PDR5 and against the host yeast. The extent of growth of yeast was determined by measurement of absorbance at 660 nm using a microtiter plate reader (MTP-500; CORONA). The growth-inhibiting activity against the yeast with overexpressed PDR5 and against the host yeast was also determined for immunosuppressor FK-506, the positive control, which is known to inhibit yeast PDR5 protein and human MDR1 protein (P-glycoprotein).

[2] = system: host yeast (Saccharomyces cerevisiae W303 (MAT a Δsyr/erg3::HIS3 Δpdr5::LEU2 Δsnq2::HIS3)); assay: Growth inhibition of the host yeast (PDR5 and SNQ2 deleted); format: cell-based; details: test drug elevated to 5 μg/mL; static culture 30° C. 24 hours
Protocol: as §1

PDR5 protein [3] = biological target: T1, PDR5 protein; assay: Rhodamine 6G accumulation in yeast with overexpressed PDR5 (fluorescence microscope); format: cell-based; details: drug at final concentration 25 μg/mL, 2 hours, then rhodamine 6G 30 minutes
Protocol: (§2) The above-mentioned strain with overexpressed PDR5 and the above-mentioned host yeast were separately subjected to shaking culture at 30° C. for 12 hours in 4 mL of the minimum medium. Then a quantity of yeast corresponding to 1.0×10^6 cells was inoculated to 4 mL of the minimum medium. Enniatin B, B1, D, enniatin mixture, or FK-506 was added to the final concentration of 25 μg/mL, and after shaking culture at 30° C. for 2 hours, 15 μL of rhodamine 6G (1 mg/mL) was added followed by culture under the same conditions for 30 minutes. After culture, the culture was washed twice with 2% glucose solution in PBS (phosphate-buffered saline) and the fluorescence in yeast cells was observed under a fluorescence microscope (Nicon ECLIPSE E400, using G-2A filter).

PDR5-deleted host yeast = assay: Rhodamine 6G accumulation in PDR5-deleted host yeast (fluorescence microscope); format: cell-based, Saccharomyces cerevisiae; details: drug at final concentration 25 μg/mL; compared with no addition of the drug
Protocol: as §2

PDR5 gene = assay: PDR5 transcription activity, β-galactosidase (lacZ) reporter downstream of Pdr5 promoter; format: cell-based, yeast; details: drug at final concentration 25 μg/mL, 8 hours; compared with no addition
Protocol: The effect of enniatin on expression of PDR5 gene was analyzed based on measurement of the PDR5 transcription activity using β-galactosidase gene as the reporter gene. Yeast, where had been introduced a recombinant plasmid obtained by fusion of β-galactosidase gene (lacZ) in the downstream of Pdr5 promoter, was subjected to shaking culture at 30° C. for 8 hours in 4 mL of YEPD medium, and a quantity of yeast corresponding to 1.0×10^6 cells was inoculated in 4 mL of the medium. At the same time, enniatin B, B1, D, enniatin mixture, or FK-506 was added to the final concentration of 25 μg/mL. After shaking culture at 30° C. for 8 hours, 1.0×10^7 yeast cells were collected. The cells were then suspended in 1 mL of Z buffer solution (60 mM disodium hydrogen phosphate, 40 mM sodium dihydrogen phosphate, 10 mM potassium chloride, 1 mM magnesium sulfate, 50 mM […], pH 7.0). The cell suspension was treated with 45 μL of chloroform and 30 μL of 0.1% sodium dodecyl sulfate at 30° C. for 5 minutes. The suspension was then treated with 200 μL of o-NPG (o-nitrophenyl-β-D-galactopyranoside) of 4 mg/mL at 30° C. for 10 minutes. After reaction was stopped by addition of 500 μL of 1 M sodium carbonate, absorbance at 420 nm was measured to determine the activity of β-galactosidase. The activity of β-galactosidase was calculated using a unit=1000×A420/10 (reaction time). […] Thus it could be confirmed that inhibition of PDR5 function by enniatin B, B1, D, enniatin mixture, or FK-506 is not ascribable to the inhibition of transcription of PDR5 gene.

PDR5 protein [4] = assay: Western blotting of PDR5 protein (quantity and stability); format: cell-based, yeast; details: after addition of the drug
Text: The effects of enniatin B, B1, D, and enniatin mixture on the quantity of PDR5 protein as the translation product and on the stability of PDR5 protein were investigated by Western blotting of PDR5 protein. After addition of enniatin B, B1, D, or enniatin mixture, quantitative change of PDR5 protein was not observed, which confirmed that apparent inhibition of the function of PDR5 gene product is ascribable neither to inhibition of translation of PDR5 protein nor to reduced stability of the protein through acceleration of decomposition of PDR5 protein.

T1 sequence (P33302 whole entry): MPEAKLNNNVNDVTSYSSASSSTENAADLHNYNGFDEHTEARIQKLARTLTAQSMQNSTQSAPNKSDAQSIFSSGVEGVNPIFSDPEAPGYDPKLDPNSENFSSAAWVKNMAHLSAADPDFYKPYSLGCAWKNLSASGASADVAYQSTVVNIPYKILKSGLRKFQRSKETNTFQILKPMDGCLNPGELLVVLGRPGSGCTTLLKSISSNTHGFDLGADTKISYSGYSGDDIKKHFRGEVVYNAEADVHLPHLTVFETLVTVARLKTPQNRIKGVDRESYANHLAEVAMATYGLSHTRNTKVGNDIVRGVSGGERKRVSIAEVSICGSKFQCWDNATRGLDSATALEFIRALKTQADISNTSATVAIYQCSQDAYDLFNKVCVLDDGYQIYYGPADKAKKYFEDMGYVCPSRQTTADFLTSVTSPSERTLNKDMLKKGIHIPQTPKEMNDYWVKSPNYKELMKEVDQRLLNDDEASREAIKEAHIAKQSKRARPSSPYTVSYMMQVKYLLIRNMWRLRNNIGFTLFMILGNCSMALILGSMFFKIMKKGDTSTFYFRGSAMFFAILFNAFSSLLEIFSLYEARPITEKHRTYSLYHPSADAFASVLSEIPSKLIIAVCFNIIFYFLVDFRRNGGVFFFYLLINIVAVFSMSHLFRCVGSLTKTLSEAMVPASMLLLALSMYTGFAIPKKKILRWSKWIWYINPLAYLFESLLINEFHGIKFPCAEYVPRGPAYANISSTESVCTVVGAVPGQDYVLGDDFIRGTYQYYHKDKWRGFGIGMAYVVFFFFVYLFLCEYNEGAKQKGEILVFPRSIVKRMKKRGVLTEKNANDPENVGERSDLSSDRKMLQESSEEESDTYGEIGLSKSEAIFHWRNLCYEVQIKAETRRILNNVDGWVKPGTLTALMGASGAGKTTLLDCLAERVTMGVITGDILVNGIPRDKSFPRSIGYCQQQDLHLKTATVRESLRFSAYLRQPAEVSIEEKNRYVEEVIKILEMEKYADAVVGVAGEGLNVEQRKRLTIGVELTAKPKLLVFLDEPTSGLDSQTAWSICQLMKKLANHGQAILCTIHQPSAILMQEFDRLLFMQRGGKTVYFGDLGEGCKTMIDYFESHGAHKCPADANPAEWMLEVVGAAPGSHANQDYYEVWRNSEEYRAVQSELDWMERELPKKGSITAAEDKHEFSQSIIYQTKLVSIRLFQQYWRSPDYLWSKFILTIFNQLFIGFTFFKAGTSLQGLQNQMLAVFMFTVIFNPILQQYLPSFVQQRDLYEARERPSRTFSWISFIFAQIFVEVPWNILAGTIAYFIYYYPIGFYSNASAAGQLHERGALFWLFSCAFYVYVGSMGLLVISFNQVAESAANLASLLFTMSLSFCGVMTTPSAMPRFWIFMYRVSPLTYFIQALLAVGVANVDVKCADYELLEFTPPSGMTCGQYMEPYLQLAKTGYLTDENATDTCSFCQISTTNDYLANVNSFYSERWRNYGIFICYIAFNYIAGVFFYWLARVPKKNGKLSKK

Structure (SMILES)	inhibition of growth of the yeast with overexpressed PDR5 (PDR5 protein [1])	inhibition of growth of the host yeast (cytotoxicity) [2]	rhodamine 6G accumulation in yeast with overexpressed PDR5 (PDR5 protein [3])	rhodamine 6G accumulation in PDR5-deleted host yeast (PDR5-deleted host yeast)	activity of β-galactosidase (PDR5 transcription activity) (PDR5 gene)	quantitative change of PDR5 protein (Western blotting) (PDR5 protein [4])	IC50 (PDR5 protein [1])
CC[C@H](C)[C@H]1C(=O)O[C@H](C(C)C)C(=O)N(C)[C@@H](C(C)C)C(=O)O[C@H](C(C)C)C(=O)N(C)[C@@H](C(C)C)C(=O)O[C@H](C(C)C)C(=O)N1C [enniatin B1, Enniatin B1]	completely	not observed	accumulated rhodamine 6G	rhodamine 6G was accumulated in yeast cells	not different from that without addition of the drug	not observed	
CC(C)CC1C(=O)OC(C(C)C)C(=O)N(C)C(C(C)C)C(=O)OC(C(C)C)C(=O)N(C)C(C(C)C)C(=O)OC(C(C)C)C(=O)N1C (centres unmarked) [enniatin D, Enniatin D]	completely	not observed	accumulated rhodamine 6G	rhodamine 6G was accumulated in yeast cells	not different from that without addition of the drug	not observed	
C/C=C/C/C=C/CCC(=O)[C@H]1O[C@H]1C(N)=O [Cerulenin]							1500 nM and 1570 nM
CC(C)[C@H]1C(=O)O[C@H](C(C)C)C(=O)N(C)[C@@H](C(C)C)C(=O)O[C@H](C(C)C)C(=O)N(C)[C@@H](C(C)C)C(=O)O[C@H](C(C)C)C(=O)N1C [enniatin B, Enniatin B]	completely	not observed	accumulated rhodamine 6G	rhodamine 6G was accumulated in yeast cells	not different from that without addition of the drug	not observed	
C[C@@H]1C[C@@H]([C@H](O)CC2CC(=O)NC(=O)C2)C(=O)[C@@H](C)C1 [Cycloheximide]							462 nM and 434 nM
